Patent publication US20070004720A1, “Use of tyrosine kinase inhibitors for the treatment of inflammatory processes” (priority 2003, published 2007)

test system: cigarette smoke-induced influx of neutrophilic granulocytes into the lung tissue; assay: Inhibition of the smoke-induced accumulation of granulocytes in the lung tissue (MPO activity); type: in vivo, rats (strain: Sprague-Dawley); conditions: Rattus norvegicus; male Sprague-Dawley rats, 5 days cigarette smoke exposure, intratracheal dose daily 30 min before smoke, lung tissue MPO, linear regression; read-out: ID50 (dosage which led to a 50% inhibition of the MPO activity)
Excerpt: Inhibition of the Smoke-Induced Accumulation of Granulocytes in the Lung Tissue Lung indications: Inhibition of the cigarette smoke-induced influx of neutrophilic granulocytes into the lung tissue by the above-mentioned EGF-receptor kinase inhibitor. Male rats (strain: Sprague-Dawley) weighing from 250-300 g were exposed for 5 days to the smoke from 8 cigarettes per day. The animals in the group treated with compound A, anaesthetised with isofluran, were given an intratracheal dose of 0.03 or 0.1 mg/kg of compound A in a volume of 0.05 ml each day 30 min before the start of the exposure to smoke. On the last day of the test the animals were killed 4 hours after the last exposure to smoke and the lung tissue was removed. A sample of 70-200 mg was taken from each lung and placed in a test tube prepared with 1 ml of 0.5% hexadecyltrimethylammonium bromide. The samples were homogenised for 15 sec using an Ultraturrax. The homogenised samples were centrifuged at 15700 g in an Eppendorf bench centrifuge for 5 min at ambient temperature. […] of the supernatant was removed and mixed with […] of phosphate buffer (50 mmol/l) containing 0.197 mg/ml of O-dianisidine dihydrochloride. After 10 minutes' incubation at ambient temperature the absorption was measured with a spectral photometer at a wavelength of 450 nm. The dosage which led to a 50% inhibition of the MPO activity (=ID50) was determined by linear regression. Exposure to cigarette smoke in rats led to an influx of neutrophilic granulocytes into the lung tissue, measured by the content of myeloperoxidase in the tissues, which is specific for neutrophilic granulocytes.

Compound | ED50 [mg/kg]
COc1cc2ncnc(Nc3ccc(F)c(Cl)c3)c2cc1OC1CCN(CCNC(C)=O)CC1 [C, 4-[(3-chloro-4-fluoro-phenyl)amino]-6-[1-(2-acetylamino-ethyl)-piperidin-4-yloxy]-7-methoxy-quinazoline] | 0.03
COc1cc2ncnc(Nc3ccc(F)c(Cl)c3)c2cc1O[C@H]1CC[C@@H](NC(=O)N2CCOCC2)CC1 [K, 4-[(3-chloro-4-fluoro-phenyl)amino]-6-{cis-4-[(morpholin-4-yl)carbonylamino]-cyclohexan-1-yloxy}-7-methoxy-quinazoline] | 0.13
COc1cc2ncnc(Nc3ccc(F)c(Cl)c3)c2cc1O[C@H]1CC[C@@H](NC(C)=O)CC1 [F, 4-[(3-chloro-4-fluoro-phenyl)amino]-6-(cis-4-acetylamino-cyclohexan-1-yloxy)-7-methoxy-quinazoline] | 0.015
COCCOc1cc2ncnc(Nc3ccc(F)c(Cl)c3)c2cc1OC1CCN(C(=O)N2CCOCC2)CC1 [L, 4-[(3-chloro-4-fluoro-phenyl)amino]-6-{1-[(morpholin-4-yl)carbonyl]-piperidin-4-yloxy}-7-(2-methoxy-ethoxy)-quinazoline] | 0.4
COc1cc2ncnc(Nc3ccc(F)c(Cl)c3)c2cc1O[C@H]1CC[C@@H](N(C)S(=O)(=O)N2CCOCC2)CC1 [E, 4-[(3-chloro-4-fluoro-phenyl)amino]-6-(cis-4-{N-[(morpholin-4-yl)sulphonyl]-N-methyl-amino}-cyclohexan-1-yloxy)-7-methoxy-quinazoline] | 0.4
COc1cc2ncnc(Nc3ccc(F)c(Cl)c3)c2cc1O[C@H]1CC[C@@H](N(C)C(=O)N2CCN(C)CC2)CC1 [I, 4-[(3-chloro-4-fluoro-phenyl)amino]-6-(cis-4-{N-[(4-methyl-piperazin-1-yl)carbonyl]-N-methyl-amino}-cyclohexan-1-yloxy)-7-methoxy-quinazoline] | 0.15
COCC(=O)N1CCC(Oc2cc3c(Nc4ccc(F)c(Cl)c4)ncnc3cc2OC)CC1 [B, 4-[(3-chloro-4-fluoro-phenyl)amino]-6-{1-[(methoxymethyl)carbonyl]-piperidin-4-yloxy}-7-methoxy-quinazoline] | 0.01
COc1cc2ncnc(Nc3ccc(F)c(Cl)c3)c2cc1OC1CCN(C(=O)N2CCOCC2)CC1 [A, 4-[(3-chloro-4-fluoro-phenyl)amino]-6-{1-[(morpholin-4-yl)carbonyl]-piperidin-4-yloxy}-7-methoxy-quinazoline] | 0.1
COc1cc2ncnc(Nc3ccc(F)c(Cl)c3)c2cc1O[C@H]1CC[C@@H](N(C)C(=O)C2CCOCC2)CC1 [D, 4-[(3-chloro-4-fluoro-phenyl)amino]-6-(cis-4-{N-[(tetrahydropyran-4-yl)carbonyl]-N-methyl-amino}-cyclohexan-1-yloxy)-7-methoxy-quinazoline] | 0.02
C#Cc1cccc(Nc2ncnc3cc(OC)c(OC4CCN(C(=O)OC(C)(C)C)CC4)cc23)c1 [G, 4-[(3-ethynyl-phenyl)amino]-6-[1-(tert.-butyloxycarbonyl)-piperidin-4-yloxy]-7-methoxy-quinazoline] | 0.01
COc1cc2ncnc(Nc3ccc(F)c(Cl)c3)c2cc1O[C@H]1CC[C@@H](N(C)C(=O)N2CCCCC2)CC1 [H, 4-[(3-chloro-4-fluoro-phenyl)amino]-6-(cis-4-{N-[(piperidin-1-yl)carbonyl]-N-methyl-amino}-cyclohexan-1-yloxy)-7-methoxy-quinazoline] | 0.15
C#Cc1cccc(Nc2ncnc3cc(OC)c(OC4CCN(C)CC4)cc23)c1 [M, 4-[(3-ethynyl-phenyl)amino]-6-(1-methyl-piperidin-4-yloxy)-7-methoxy-quinazoline] | 0.07

same assay, conditions: rats, intratracheal 0.03 or 0.1 mg/kg daily, 5 days smoke exposure, myeloperoxidase content of lung tissue

Compound | inhibition of the smoke-induced accumulation of granulocytes
COc1cc2ncnc(Nc3ccc(F)c(Cl)c3)c2cc1OC1CCN(C(=O)N2CCOCC2)CC1 [A, 4-[(3-chloro-4-fluoro-phenyl)amino]-6-{1-[(morpholin-4-yl)carbonyl]-piperidin-4-yloxy}-7-methoxy-quinazoline] | significant (p<0.005) inhibition
